These results are taken from patent publication US10988477B2 (Merck Patent GmbH, priority 2018, dated 2021).

Structures are written as SMILES. Where two headings read alike, the source gives them in different places.

One assay has as its target GCN2 kinase (Homo sapiens, UniProt Q9P2K8). Nature of the assay: GCN2 enzyme inhibition assay (Transcreener ADP2 fluorescence polarization). In kind it is biochemical. Particulars: 280 μM ATP. The gist of the method: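 4 nM GCN2 + 200 μM (RS)7 + compound (0–8 μM), 10 min preinc.; start with ATP (280 μM final); 1 h, 25 °C; pH 7.5 Tris/NaCl/MgCl2/DTT; ADP FP readout; IC50, Ki(app) via tight-binding fit.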

The target in assay [1] is intracellular GCN2 (phosphorylation of the GCN2 substrate eIF2α) (Homo sapiens, UniProt Q9P2K8). Nature of the assay: GCN2 cellular inhibition assay (AlphaScreen SureFire P-eIF2α Ser51, borrelidin-treated U2OS cells). In kind it is cell-based. The gist of the method: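 Borrelidin at 10 μM is added to U2OS cells immediately after compound (4-fold dilution series, 40 μM top final) for 1 h at 37 °C. Phosphorylated eIF2α Ser51 in lysates is quantified by AlphaScreen and expressed as percent inhibition against borrelidin-stimulated controls.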

[2] abbreviates: Enzyme activity for compounds of Formula IV, Ki(app), 25° C.
Setting [3] is: compounds of Formula IV, biomarker assay, phosphorylated eIF2α Ser51 in borrelidin-treated U2OS cells.
[4] abbreviates: compounds of Formula II, 4 nM GCN2 kinase.
The mark [5] stands for this setting: compounds of Formula II, biomarker assay, phosphorylated eIF2α Ser51 in borrelidin-treated U2OS cells.

GCN2 kinase, sequence (Q9P2K8 whole entry): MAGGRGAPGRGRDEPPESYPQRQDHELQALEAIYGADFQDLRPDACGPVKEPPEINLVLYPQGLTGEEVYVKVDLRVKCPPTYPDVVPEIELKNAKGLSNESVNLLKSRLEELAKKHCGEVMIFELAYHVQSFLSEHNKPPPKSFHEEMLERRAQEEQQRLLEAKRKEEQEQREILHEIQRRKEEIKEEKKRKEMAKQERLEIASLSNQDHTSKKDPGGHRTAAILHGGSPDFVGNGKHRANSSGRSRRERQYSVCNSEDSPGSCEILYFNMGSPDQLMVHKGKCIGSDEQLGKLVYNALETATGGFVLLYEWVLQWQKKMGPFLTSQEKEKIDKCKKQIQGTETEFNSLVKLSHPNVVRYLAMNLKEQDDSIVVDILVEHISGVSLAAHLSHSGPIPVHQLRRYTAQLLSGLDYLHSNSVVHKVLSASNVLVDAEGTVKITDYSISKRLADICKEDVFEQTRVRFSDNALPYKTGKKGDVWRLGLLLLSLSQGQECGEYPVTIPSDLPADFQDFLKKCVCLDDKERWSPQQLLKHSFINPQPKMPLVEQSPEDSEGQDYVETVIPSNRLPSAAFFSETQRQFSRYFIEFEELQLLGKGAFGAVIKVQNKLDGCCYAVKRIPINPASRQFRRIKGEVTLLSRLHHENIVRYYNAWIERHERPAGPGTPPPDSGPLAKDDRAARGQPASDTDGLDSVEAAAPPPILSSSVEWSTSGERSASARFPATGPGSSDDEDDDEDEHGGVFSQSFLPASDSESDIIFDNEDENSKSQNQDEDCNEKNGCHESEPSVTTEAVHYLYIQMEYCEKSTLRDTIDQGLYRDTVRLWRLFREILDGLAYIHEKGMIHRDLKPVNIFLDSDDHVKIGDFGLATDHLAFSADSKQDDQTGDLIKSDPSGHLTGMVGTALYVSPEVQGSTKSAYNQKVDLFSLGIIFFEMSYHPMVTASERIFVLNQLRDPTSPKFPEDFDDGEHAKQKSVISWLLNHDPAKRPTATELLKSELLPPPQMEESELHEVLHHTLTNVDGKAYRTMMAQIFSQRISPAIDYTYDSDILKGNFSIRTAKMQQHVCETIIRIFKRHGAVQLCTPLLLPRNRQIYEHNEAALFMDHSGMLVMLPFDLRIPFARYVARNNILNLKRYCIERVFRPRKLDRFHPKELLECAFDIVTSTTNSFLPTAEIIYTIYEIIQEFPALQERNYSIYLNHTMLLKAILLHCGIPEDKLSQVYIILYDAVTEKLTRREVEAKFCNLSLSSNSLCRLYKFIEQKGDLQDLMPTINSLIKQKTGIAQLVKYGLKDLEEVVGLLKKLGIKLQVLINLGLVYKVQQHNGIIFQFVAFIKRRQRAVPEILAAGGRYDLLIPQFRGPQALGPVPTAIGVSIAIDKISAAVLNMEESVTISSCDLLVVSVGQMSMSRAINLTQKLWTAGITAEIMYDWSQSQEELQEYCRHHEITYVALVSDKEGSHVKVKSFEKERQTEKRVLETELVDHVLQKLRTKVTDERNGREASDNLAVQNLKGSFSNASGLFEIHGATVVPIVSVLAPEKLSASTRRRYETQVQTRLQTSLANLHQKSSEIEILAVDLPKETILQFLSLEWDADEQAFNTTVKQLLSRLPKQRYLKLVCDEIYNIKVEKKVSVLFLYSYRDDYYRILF
intracellular GCN2 (phosphorylation of the GCN2 substrate eIF2α), sequence (Q9P2K8 whole entry): as above

On to `CC1C(c2cn[nH]c2)NCCN1c1ccnc(-c2cnc3cnc(Br)cn23)n1` (single isomer, unassigned) [IV-351, 6-Bromo-3-(4-(2-methyl-3-(1H-pyrazol-4-yl)piperazin-1-yl)pyrimidin-2-yl)imidazo[1,2-a]pyrazine], for which, at GCN2 kinase (setting [2]), the Ki was less than 0.01 µM. The compound also displayed an IC50 in assay [1] (setting [3]) of less than 0.5 µM.

At GCN2 kinase (setting [4]), `Cn1cc(C(=O)N2CCCC(c3cc(-c4cnc5ccc(C(F)F)nn45)ncn3)C2)cn1` (centres unmarked) [II-41, (3-(6-(6-(Difluoromethyl)imidazo[1,2-b]pyridazin-3-yl)pyrimidin-4-yl)piperidin-1-yl)(1-methyl-1H-pyrazol-4-yl)methanone] yielded a Ki of 0.01 to 1 µM. Besides, the concentration for half-maximal inhibition (IC50) in assay [1] (setting [5]) was 0.5 to 5 µM.

`C[C@@H]1CC(N=S(C)(C)=O)CN(c2cc(-c3cnc4ccc(C(F)F)nn34)ncn2)C1` (single isomer, unassigned) [II-541]: the Ki at GCN2 kinase (setting [4]) is less than 0.01 µM. The half-maximal inhibitory concentration (IC50) in assay [1] (setting [5]) is less than 0.5 µM.

At GCN2 kinase (setting [4]), `CS(=O)(=O)N1CC2(CN(c3cc(-c4cnc5ccc(C(F)F)nn45)ccn3)CCO2)C1` [II-126, 8-(4-(6-(Difluoromethyl)imidazo[1,2-b]pyridazin-3-yl)pyridin-2-yl)-2-(methylsulfonyl)-5-oxa-2,8-diazaspiro[3.5]nonane] gave a Ki of 0.01 to 1 µM. Further, the half-maximal inhibitory concentration (IC50) in assay [1] (setting [5]) was greater than 5 µM.

Turning to `CS(=O)(=O)NCC1CN(c2cc(-c3cnc4ccc(C(F)F)nn34)ncn2)CC(C2CC2)O1` (centres unmarked) [II-441, N-((6-Cyclopropyl-4-(6-(6-(difluoromethyl)imidazo[1,2-b]pyridazin-3-yl)pyrimidin-4-yl)morpholin-2-yl)methyl)methanesulfonamide], at GCN2 kinase (setting [4]), the Ki lay in the range of 0.01 to 1 µM. Besides, in assay [1] (setting [5]), the 50% inhibitory concentration (IC50) was in the range of 0.5 to 5 µM.

`OCC12CC1CN(c1ccnc(-c3cnc4cnc(C(F)F)cn34)n1)C2` (centres unmarked) [IV-111, (3-(2-(6-(Difluoromethyl)imidazo[1,2-a]pyrazin-3-yl)pyrimidin-4-yl)-3-azabicyclo[3.1.0]hexan-1-yl)methanol]: on GCN2 kinase (setting [2]), the Ki lay in the range of 0.1 to 1 µM. In assay [1] (setting [3]), this compound yielded a 50% inhibitory concentration (IC50) greater than 5 µM.

The compound `CS(=O)(=O)NCc1cccc(-c2ccnc(-c3cnc4cnc(C(F)F)cn34)n2)c1` [IV-146, N-(3-(2-(6-(Difluoromethyl)imidazo[1,2-a]pyrazin-3-yl)pyrimidin-4-yl)benzyl)methanesulfonamide] gave a Ki on GCN2 kinase (setting [2]) of 0.1 to 1 µM. In assay [1] (setting [3]), the concentration for half-maximal inhibition (IC50) was greater than 5 µM.

Take `CC(=O)N1CCN(c2cc(-c3cnn4ccc(C(F)F)nc34)ccn2)CC1`: the Ki at GCN2 kinase (compounds of Formula III, 4 nM GCN2 kinase) is 0.01 to 1 µM. Besides, the IC50 in assay [1] (compounds of Formula III, U2OS cells, 10 μM borrelidin, 1 h, read-out: GCN2 Biomarker (IC50)) fell in the range of 0.5 to 5 µM.

`C=Cc1cn2c(-c3nccc(N4CCN(C(C)=O)CC4)n3)cnc2cn1` [IV-37, 1-(4-(2-(6-Vinylimidazo[1,2-a]pyrazin-3-yl)pyrimidin-4-yl)piperazin-1-yl)ethan-1-one] showed a Ki on GCN2 kinase (setting [2]) of 0.1 to 1 µM. The half-maximal inhibitory concentration (IC50) in assay [1] (setting [3]) is greater than 5 µM.

In the case of `O=C(NCCO)N1CCC(c2cc(-c3cnc4ccc(C(F)F)nn34)ncn2)C1` (centres unmarked) [II-254, 3-(6-(6-(Difluoromethyl)imidazo[1,2-b]pyridazin-3-yl)pyrimidin-4-yl)-N-(2-hydroxyethyl)pyrrolidine-1-carboxamide], the Ki at GCN2 kinase (setting [4]) was 0.01 to 1 µM. The same compound displayed an IC50 in assay [1] (setting [5]) greater than 5 µM.

As for `CC1C(c2cn[nH]c2)NCCN1c1ccnc(-c2cnc3cnc(Br)cn23)n1` (single isomer, unassigned) [IV-350, 6-Bromo-3-(4-(2-methyl-3-(1H-pyrazol-4-yl)piperazin-1-yl)pyrimidin-2-yl)imidazo[1,2-a]pyrazine], the Ki on GCN2 kinase (setting [2]) fell in the range of 0.1 to 1 µM. Also, the 50% inhibitory concentration (IC50) in assay [1] (setting [3]) was 0.5 to 5 µM.

On GCN2 kinase (setting [2]), `CN([C@H]1CCN(c2ccnc(-c3cnc4cnc(C(F)F)cn34)n2)C1)S(C)(=O)=O` [IV-125, (S)—N-(1-(2-(6-(Difluoromethyl)imidazo[1,2-a]pyrazin-3-yl)pyrimidin-4-yl)pyrrolidin-3-yl)-N-methylmethanesulfonamide] came in with a Ki of 0.1 to 1 µM. The same compound had a half-maximal inhibitory concentration (IC50) in assay [1] (setting [3]) greater than 5 µM.

Take `OCCC1CN(c2cc(-c3cnc4ccc(C(F)F)nn34)ncn2)CCN1` (centres unmarked) [II-496, 2-(4-(6-(6-(Difluoromethyl)imidazo[1,2-b]pyridazin-3-yl)pyrimidin-4-yl)piperazin-2-yl)ethan-1-ol]: on GCN2 kinase (setting [4]), the Ki was in the range of 0.01 to 1 µM. Also, the half-inhibitory concentration (IC50) in assay [1] (setting [5]) is greater than 5 µM.
